Experimental data from patent US9751824B2, “Acetyl salicyclic acid dimers, synthesis thereof, and uses thereof to prevent and treat complement-mediated disorders” (Aurin Biotech Inc., priority 2013, dated 2017).

Legend:
C6 = biological target: T1, C6 (Homo sapiens, UniProt P13671); assay: Fluorometric binding to immobilized protein (FIG. 6); conditions: compound 100 microgm/mL; protein 32 ng/mL
T1 construct: purchased Sigma, St. Louis, MO
Method: (§1) The next set of experiments directly tested the binding of DAS-1 and DAS-2 to properdin, Factor D and complement proteins. These proteins were immobilized on microwell plates in a concentration range of 1-32 ng/mL. DAS-1 and DAS-2 were then added at a concentration of 100 microgm/mL and the solutions incubated as previously described. DAS-1 and DAS-2 binding to the proteins was then assayed according to a previously published fluorometric method except that the excitation frequency was […] and the emission frequency […]. […] Such binding explains why DAS-1 and DAS-2 block the alternative pathway at the stage where Factor D cleaves PC3B to form PC3Bb, and both the classical and alternative pathways at the stage where C9 adds to C5b678. […] There was no binding of DAS-1 or DAS-2 to properdin and only background fluorescence was observed.

C2 = biological target: T2, C2 (Homo sapiens, UniProt P06681); assay: as above; conditions: compound 100 microgm/mL; protein 32 ng/mL
T2 construct: purchased Sino Biologicals Inc., Beijing, China
T2 sequence (P06681 21-752): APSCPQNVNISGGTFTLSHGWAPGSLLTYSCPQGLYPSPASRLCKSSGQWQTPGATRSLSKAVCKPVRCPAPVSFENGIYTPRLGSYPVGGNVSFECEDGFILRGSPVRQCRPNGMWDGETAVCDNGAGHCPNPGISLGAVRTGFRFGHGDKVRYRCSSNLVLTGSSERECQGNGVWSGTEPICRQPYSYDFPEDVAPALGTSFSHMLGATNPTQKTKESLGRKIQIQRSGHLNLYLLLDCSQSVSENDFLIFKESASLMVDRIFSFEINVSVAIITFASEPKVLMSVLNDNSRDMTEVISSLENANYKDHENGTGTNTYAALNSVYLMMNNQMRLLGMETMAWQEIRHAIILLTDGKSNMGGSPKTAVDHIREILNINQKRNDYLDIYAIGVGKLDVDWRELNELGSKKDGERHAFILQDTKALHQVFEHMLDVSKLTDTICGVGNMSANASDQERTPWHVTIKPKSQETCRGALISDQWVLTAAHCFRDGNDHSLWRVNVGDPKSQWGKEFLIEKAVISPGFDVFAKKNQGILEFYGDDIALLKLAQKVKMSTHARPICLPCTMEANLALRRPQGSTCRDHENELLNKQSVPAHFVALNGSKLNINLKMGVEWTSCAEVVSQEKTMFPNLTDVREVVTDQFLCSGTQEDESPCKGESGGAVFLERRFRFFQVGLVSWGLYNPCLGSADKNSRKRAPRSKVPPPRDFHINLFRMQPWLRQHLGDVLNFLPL
Method: as §1

C5 = biological target: T3, C5 (Homo sapiens, UniProt P01031); assay: as above; conditions: compound 100 microgm/mL; protein 32 ng/mL
T3 construct: purchased Complement technology Inc., Tyler, TX
Method: as §1

C8 = biological target: T4, C8 (Homo sapiens, UniProt P07357+P07358+P07360); assay: as above; conditions: compound 100 microgm/mL; protein 32 ng/mL
T4 construct: purchased Sigma, St. Louis, MO
Method: as §1

properdin = biological target: T5, properdin (Homo sapiens, UniProt P27918); assay: as above; conditions: compound 100 microgm/mL; only background fluorescence
T5 construct: purchased Quidel, San Diego, CA
Method: as §1

C9 = biological target: T6, C9 (Homo sapiens, UniProt P02748); assay: as above; conditions: compound 100 microgm/mL; protein immobilized 1-32 ng/mL
T6 construct: purchased Sigma, St. Louis, MO
Method: as §1

C7 = biological target: T7, C7 (Homo sapiens, UniProt P10643); assay: as above; conditions: compound 100 microgm/mL; protein 32 ng/mL
T7 construct: purchased Quidel, San Diego, CA
Method: as §1

Factor D = biological target: T8, Factor D (Homo sapiens, UniProt P00746); assay: as above; conditions: compound 100 microgm/mL; protein immobilized 1-32 ng/mL
T8 construct: purchased Quidel, San Diego, CA
Method: as §1

Factor B = biological target: T9, Factor B (Homo sapiens, UniProt P00751); assay: as above; conditions: compound 100 microgm/mL; protein 32 ng/mL
T9 construct: purchased Sigma, St. Louis, MO
Method: as §1

C3 = biological target: T10, C3 (Homo sapiens, UniProt P01024); assay: as above; conditions: compound 100 microgm/mL; protein 32 ng/mL
T10 construct: purchased Sigma, St. Louis, MO
Method: as §1

[1] = test system: classical complement pathway; assay: CH50 assay, hemolysis of sensitized human red blood cells by zymosan-activated dog serum; assay type: cell-based; conditions: Canis lupus familiaris, Erythrocyte, read-out: IC50, protection of human red blood cells from complement attack
Method: (§2) To evaluate the strength of blockade of the classical complement pathway achieved by DAS-1 and DAS-2, a standard CH50 assay was employed. Normal human red blood cells were sensitized by incubation overnight with rabbit anti red blood cell antibody. Then dilutions of serum activated by zymosan, with and without various amounts of DAS-1, DAS-2, or the precursor acetylsalicylic acid, were incubated with the sensitized red blood cells for 1 hour at 37° C. The incubates were centrifuged at 5,000 rpm for 10 min. The hemoglobin released into the serum from red blood cells that had been destroyed by complement attack, was determined by reading the optical density (OD) at 405 nm. As a positive control, red blood cells were 100% lysed with water, and as a negative control, no serum was added to the incubate.
(§3) DAS-1 and DAS-2 protected human red blood cells from complement attack by zymogen activated serum of human, rat, cat, and dog. FIG. 3A illustrates the result for DAS-1.

[2] = test system: classical complement pathway; assay: CH50 assay, hemolysis of sensitized human red blood cells by zymosan-activated cat serum; assay type: cell-based; conditions: Felis catus, Erythrocyte, read-out: IC50, protection of human red blood cells from complement attack
Method: as §2, §3

C4 = assay: Fluorometric binding to immobilized protein (FIG. 6); design: species or system human; conditions: compound 100 microgm/mL; protein 32 ng/mL
Method: as §1

[3] = biological target: T11, C5b-9 membrane attack complex (Homo sapiens, UniProt P02748); assay: Western blot of red blood cell membranes, classical pathway (FIG. 4A); assay type: cell-based; conditions: zymosan-activated human serum, alternative pathway blocked by antibodies to properdin and Factor D
T11 construct: from tissue; host or cells: human serum, with human red blood cells as the target membrane
Method: To determine at which stage of the complement cascade blockade was occurring, a variation of the CH50 assay was carried out. Instead of measuring hemolysis, western blot analyses of red blood cell membranes were carried out to determine which serum complement proteins were converted into activated complement products that became attached to susceptible membranes. Such attachment only occurs up to the stage of blockade. At stages beyond the blockade, they remain unchanged in the serum. Undiluted human serum was treated for 30 min with DAS-1, DAS-2, or acetyl salicylic acid. Then antibody-conjugated red blood cells in an equal volume were added. The mixtures were incubated at 37° C. for 1 h. They were then treated with a lysis buffer followed by a loading buffer for western blots. Equal amounts of protein from each sample were loaded onto gels and separated by 10% SDS-PAGE. Following SDS-PAGE, proteins were transferred to a PVDF membrane. The membranes were then treated with various primary antibodies followed by labeled secondary antibodies using well established techniques. Bands recognized by the antibodies were visualized by use of an enhanced chemiluminescence system and exposure to photographic film. For probing the same membrane with different antibodies, the membranes were treated with stripping buffer and then treated as before with a different primary antibody. […] The adjacent lane illustrates the effect of adding to the serum zymosan to activate complement, and antibodies to properdin and Factor D to block the alternative pathway. Sensitized red blood cells then become hemolyzed by classical pathway attack. Native serum proteins are consumed and become incorporated into the red cell membranes. C1q was not metabolized, but the band was intensified due to its dissociation from the C1 complex. Native C3 was no longer detected because it had been cleaved, and the C3b fragment had become covalently attached to the membrane. Its degradation product C3d was detected. C4 was no longer detected because it had similarly been cleaved and the C4b fragment attached to the membrane and metabolized into its degradation product C4d. This fragment was also detected. C5 was cleaved and a band for the C5a product detected. Finally, the C5b-9 membrane attack complex, which had formed on the red cell membrane causing its hemolysis, was detected. The next two lanes show the effects of incubation in the presence of DAS-1, DAS-2. […] This establishes that the block provided by DAS-1 and DAS-2 was at the MAC assembly stage.

[4] = test system: C3 convertase of the alternative pathway; assay: Western blot of red blood cell membranes, alternative pathway with C1 inhibitor (FIG. 5); assay type: cell-based, human; conditions: 1 microM; serum 15 fold dilution, zymosan, C1 inhibitor 1.8 micrograms/mL
Method: To determine the effects of DAS-1 and DAS-2 on the alternative pathway, further experiments were carried out as shown in FIG. 5. […] To these mixtures human RBCs (5×10^9) were added. The mixtures were incubated for 1 h at 37° C. and centrifuged at 5,000 rpm for […]. The pellets were washed two times with Hank's balanced salt solution (HBSS) and treated with sample loading buffer for SDS-PAGE and immunoblotting. The buffer consisted of 50 mM Tris (pH 6.8), 0.1% SDS, 0.1% bromophenol blue and 10% glycerol. To preserve the molecular complexes that had formed, mild conditions for SDS-PAGE were followed. The sample loading buffer used was 50 mM Tris (pH 6.8), 1% SDS, 0.1% bromophenol blue and 10% glycerol and 2% beta-mercaptoethanol.
However an independent band for C3b was not detected. […] Lanes 3 and 4 show the results obtained in the presence of 1 microM of DAS-1 or DAS-2. […] Instead, strong bands for the earlier steps of PC3b and PC3bB appeared.

[5] = test system: classical complement pathway; assay: CH50 assay, hemolysis of sensitized human red blood cells by zymosan-activated rat serum; assay type: cell-based; conditions: Erythrocyte, read-out: IC50, protection of human red blood cells from complement attack
Method: as §2, §3

[6] = test system: classical complement pathway; assay: CH50 assay, hemolysis of sensitized human red blood cells by zymosan-activated human serum; assay type: cell-based; conditions: for IC50: Erythrocyte, zymosan-activated human serum, read-out: IC50, protection of human red blood cells from complement attack
Method: as §2, §3

[7] = biological target: T11, C5b-9 membrane attack complex; assay: Western blot of membrane attack complex assembly stage with C6, C7, C8, C9 antibodies (FIG. 4B); assay type: cell-based; conditions: western blots probed with antibodies to C6, C7, C8 and C9
Method: To determine at which stage of the complement cascade blockade was occurring, a variation of the CH50 assay was carried out. Instead of measuring hemolysis, western blot analyses of red blood cell membranes were carried out to determine which serum complement proteins were converted into activated complement products that became attached to susceptible membranes. Such attachment only occurs up to the stage of blockade. At stages beyond the blockade, they remain unchanged in the serum. Undiluted human serum was treated for 30 min with DAS-1, DAS-2, or acetyl salicylic acid. Then antibody-conjugated red blood cells in an equal volume were added. The mixtures were incubated at 37° C. for 1 h. They were then treated with a lysis buffer followed by a loading buffer for western blots. Equal amounts of protein from each sample were loaded onto gels and separated by 10% SDS-PAGE. Following SDS-PAGE, proteins were transferred to a PVDF membrane. The membranes were then treated with various primary antibodies followed by labeled secondary antibodies using well established techniques. Bands recognized by the antibodies were visualized by use of an enhanced chemiluminescence system and exposure to photographic film. […] The C6 antibody detected C5b6, C5b67, and C5b678. The C7 antibody detected C5b67 and C5b678, while the C8 antibody detected C5b678. […]

T11 sequence (P02748 22-559, one chain of several): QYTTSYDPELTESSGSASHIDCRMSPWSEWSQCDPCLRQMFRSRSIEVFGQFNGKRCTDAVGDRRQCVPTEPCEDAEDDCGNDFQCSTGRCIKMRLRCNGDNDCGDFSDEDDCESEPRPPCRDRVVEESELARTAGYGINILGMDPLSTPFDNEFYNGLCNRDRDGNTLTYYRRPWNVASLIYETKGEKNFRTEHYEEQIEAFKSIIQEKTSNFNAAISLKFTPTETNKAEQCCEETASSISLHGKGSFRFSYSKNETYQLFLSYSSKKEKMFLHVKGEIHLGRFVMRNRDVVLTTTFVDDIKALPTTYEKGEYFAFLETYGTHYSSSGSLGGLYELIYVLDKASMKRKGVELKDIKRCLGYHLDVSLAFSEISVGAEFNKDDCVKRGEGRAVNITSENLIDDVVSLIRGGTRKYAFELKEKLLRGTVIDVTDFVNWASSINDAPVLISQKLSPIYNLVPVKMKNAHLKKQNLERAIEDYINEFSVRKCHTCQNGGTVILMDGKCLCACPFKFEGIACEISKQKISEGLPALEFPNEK
T5 sequence (P27918 28-469): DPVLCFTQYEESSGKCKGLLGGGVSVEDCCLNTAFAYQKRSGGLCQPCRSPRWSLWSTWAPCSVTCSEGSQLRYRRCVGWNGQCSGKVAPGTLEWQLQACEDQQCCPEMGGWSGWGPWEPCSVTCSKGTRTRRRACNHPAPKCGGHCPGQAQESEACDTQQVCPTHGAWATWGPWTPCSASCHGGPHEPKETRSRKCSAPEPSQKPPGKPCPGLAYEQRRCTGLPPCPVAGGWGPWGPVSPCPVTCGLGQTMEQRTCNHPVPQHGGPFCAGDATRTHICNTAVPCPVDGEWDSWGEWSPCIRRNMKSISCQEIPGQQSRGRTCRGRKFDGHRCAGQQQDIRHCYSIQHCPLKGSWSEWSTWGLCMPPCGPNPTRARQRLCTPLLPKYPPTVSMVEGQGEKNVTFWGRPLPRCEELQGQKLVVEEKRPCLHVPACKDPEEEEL
T3 sequence (P01031 19-1676): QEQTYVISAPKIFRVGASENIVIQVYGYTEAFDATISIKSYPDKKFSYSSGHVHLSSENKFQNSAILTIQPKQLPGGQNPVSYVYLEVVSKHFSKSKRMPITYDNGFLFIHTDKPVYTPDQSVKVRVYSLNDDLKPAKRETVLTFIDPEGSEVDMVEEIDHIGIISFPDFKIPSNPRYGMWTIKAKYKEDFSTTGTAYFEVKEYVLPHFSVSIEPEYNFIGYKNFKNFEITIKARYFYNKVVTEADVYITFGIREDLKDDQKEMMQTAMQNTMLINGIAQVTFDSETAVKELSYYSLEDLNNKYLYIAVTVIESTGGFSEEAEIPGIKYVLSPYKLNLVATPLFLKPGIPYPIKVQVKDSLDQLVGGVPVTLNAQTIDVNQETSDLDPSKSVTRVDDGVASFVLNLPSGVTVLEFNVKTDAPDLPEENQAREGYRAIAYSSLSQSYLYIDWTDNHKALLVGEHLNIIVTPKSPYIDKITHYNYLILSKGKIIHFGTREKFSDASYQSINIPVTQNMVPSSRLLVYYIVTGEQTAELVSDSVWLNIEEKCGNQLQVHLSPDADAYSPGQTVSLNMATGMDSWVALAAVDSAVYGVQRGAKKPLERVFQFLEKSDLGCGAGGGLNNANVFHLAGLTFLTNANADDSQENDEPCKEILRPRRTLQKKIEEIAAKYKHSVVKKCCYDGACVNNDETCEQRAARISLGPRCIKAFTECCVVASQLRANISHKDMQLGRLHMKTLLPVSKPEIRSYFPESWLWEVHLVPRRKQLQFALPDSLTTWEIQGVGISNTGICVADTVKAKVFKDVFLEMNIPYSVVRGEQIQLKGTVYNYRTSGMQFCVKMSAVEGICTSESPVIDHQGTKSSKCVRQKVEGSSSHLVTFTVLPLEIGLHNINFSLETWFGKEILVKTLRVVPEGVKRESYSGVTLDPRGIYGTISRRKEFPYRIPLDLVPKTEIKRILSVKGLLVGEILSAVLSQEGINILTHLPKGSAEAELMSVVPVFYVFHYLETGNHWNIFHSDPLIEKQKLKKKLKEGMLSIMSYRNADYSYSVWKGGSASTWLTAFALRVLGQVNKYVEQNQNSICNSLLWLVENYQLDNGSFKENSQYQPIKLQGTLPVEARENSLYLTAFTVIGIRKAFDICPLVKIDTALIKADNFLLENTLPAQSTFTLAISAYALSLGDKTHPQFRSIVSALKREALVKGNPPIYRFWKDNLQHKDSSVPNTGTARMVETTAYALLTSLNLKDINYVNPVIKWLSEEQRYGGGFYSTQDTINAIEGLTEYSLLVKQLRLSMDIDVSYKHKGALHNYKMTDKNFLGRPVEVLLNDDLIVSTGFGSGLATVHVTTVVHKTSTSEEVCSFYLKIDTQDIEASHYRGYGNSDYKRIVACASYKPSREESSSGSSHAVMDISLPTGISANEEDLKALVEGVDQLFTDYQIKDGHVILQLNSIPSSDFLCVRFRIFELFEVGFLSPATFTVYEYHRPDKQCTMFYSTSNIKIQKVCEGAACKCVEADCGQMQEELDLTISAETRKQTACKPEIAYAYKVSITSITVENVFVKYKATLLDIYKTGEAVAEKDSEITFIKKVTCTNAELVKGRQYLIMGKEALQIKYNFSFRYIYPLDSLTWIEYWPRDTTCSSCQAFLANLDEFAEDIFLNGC
T4 sequence (P07357 31-584): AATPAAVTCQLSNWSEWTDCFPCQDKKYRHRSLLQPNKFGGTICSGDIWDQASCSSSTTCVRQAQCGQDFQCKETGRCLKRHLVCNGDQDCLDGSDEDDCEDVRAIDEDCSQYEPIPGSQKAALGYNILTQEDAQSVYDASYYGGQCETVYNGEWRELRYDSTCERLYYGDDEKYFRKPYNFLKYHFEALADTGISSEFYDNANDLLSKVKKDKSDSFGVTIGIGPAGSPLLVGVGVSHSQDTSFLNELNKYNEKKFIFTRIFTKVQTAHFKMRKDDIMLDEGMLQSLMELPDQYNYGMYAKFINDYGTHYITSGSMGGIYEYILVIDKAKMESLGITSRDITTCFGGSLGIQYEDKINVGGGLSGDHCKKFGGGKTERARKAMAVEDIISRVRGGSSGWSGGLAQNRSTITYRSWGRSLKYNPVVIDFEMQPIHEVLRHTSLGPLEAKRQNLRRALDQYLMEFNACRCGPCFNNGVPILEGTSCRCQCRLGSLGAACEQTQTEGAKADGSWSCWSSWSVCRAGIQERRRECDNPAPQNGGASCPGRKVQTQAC
T4 sequence (P07358 55-591): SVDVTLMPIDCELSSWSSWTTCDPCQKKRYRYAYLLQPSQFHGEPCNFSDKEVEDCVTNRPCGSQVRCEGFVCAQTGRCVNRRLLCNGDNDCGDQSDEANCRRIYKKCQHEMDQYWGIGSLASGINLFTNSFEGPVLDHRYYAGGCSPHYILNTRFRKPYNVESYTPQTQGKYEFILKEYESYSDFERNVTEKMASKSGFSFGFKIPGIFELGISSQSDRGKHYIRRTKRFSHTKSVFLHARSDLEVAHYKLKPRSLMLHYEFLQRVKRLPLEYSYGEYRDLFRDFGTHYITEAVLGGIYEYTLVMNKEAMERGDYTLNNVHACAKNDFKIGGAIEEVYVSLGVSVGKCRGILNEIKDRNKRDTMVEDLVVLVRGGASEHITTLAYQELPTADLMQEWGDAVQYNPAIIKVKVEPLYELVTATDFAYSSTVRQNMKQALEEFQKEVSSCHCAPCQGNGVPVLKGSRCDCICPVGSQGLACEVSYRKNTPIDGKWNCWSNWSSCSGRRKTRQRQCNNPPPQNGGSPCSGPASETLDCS
T4 sequence (P07360 21-202): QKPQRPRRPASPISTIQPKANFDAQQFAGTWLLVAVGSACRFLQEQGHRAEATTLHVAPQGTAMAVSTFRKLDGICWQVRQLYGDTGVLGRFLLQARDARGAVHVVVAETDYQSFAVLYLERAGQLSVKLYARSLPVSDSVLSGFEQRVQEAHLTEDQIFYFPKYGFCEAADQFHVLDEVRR
T8 sequence (P00746 26-253): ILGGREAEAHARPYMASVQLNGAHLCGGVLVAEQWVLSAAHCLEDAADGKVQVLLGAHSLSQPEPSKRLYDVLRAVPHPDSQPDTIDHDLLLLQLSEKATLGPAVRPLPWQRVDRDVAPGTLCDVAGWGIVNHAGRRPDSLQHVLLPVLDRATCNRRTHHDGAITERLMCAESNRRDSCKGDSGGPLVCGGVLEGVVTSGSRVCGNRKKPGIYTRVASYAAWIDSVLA
T6 sequence (P02748 22-559): as the sequence (P02748 22-559, one chain of several) above

## CC(=O)Oc1ccc(-c2ccc(OC(C)=O)c(C(=O)O)c2)cc1C(=O)O [DAS-1, 4,4′-diacetoxy-[1,1′-biphenyl]-3,3′-dicarboxylic acid]
C6
  binding to C6: did not bind
C2
  binding to C2: did not bind
C5
  binding to C5: did not bind
C8
  binding to C8: did not bind
properdin
  binding to properdin: no binding
C9
  binding to C9: bound strongly
C7
  binding to C7: did not bind
Factor D
  binding to Factor D: bound strongly
Factor B
  binding to Factor B: did not bind
C3
  binding to C3: did not bind
[1]; 1 hour at 37° C., OD 405 nm
  IC50: 142 nM
[2]; 1 hour at 37° C., OD 405 nm
  IC50: 168 nM
C4
  binding to C4: did not bind
[3]
  bands for the opsonization steps versus unprotected lane: Identical bands
  detection of membrane attack complex on red cell membranes: not detected
  hemolysis of red cells: not hemolyzed
[4]
  bands for PC3bBb and PC3bBbC3b on RBC membranes: did not form
  bands for the earlier steps of PC3b and PC3bB on RBC membranes: strong bands
[5]; 1 hour at 37° C., OD 405 nm
  IC50: 294 nM
[6]; 1 hour at 37° C., OD 405 nm
  IC50: 208 nM
[7]
  stage at which membrane attack complex formation is arrested: arrested at the C8 stage

## CC(=O)Oc1ccc(Cc2ccc(OC(C)=O)c(C(=O)O)c2)cc1C(=O)O [DAS-2, 5,5′-methylenebis(2-acetoxybenzoic acid)]
C6
  binding to C6: did not bind
C2
  binding to C2: did not bind
C5
  binding to C5: did not bind
C8
  binding to C8: did not bind
properdin
  binding to properdin: no binding
C9
  binding to C9: bound strongly
C7
  binding to C7: did not bind
Factor D
  binding to Factor D: bound strongly
Factor B
  binding to Factor B: did not bind
C3
  binding to C3: did not bind
[1]; unit inferred
  IC50: 98 nM
[2]; unit inferred
  IC50: 128 nM
C4
  binding to C4: did not bind
[3]
  bands for the opsonization steps versus unprotected lane: Identical bands
  detection of membrane attack complex on red cell membranes: not detected
  hemolysis of red cells: not hemolyzed
[4]
  bands for PC3bBb and PC3bBbC3b on RBC membranes: did not form
  bands for the earlier steps of PC3b and PC3bB on RBC membranes: strong bands
[5]; unit inferred
  IC50: 167 nM
[6]; unit inferred
  IC50: 113 nM
[7]
  stage at which membrane attack complex formation is arrested: same results as in lane 3

## CC(=O)Oc1ccccc1C(=O)O [acetylsalicylic acid, reference compound]
[6]; added at 1 mM, serum species not singled out (FIG. 3 covers human, rat, cat, dog)
  protective effect against hemolysis (FIG. 3C): no protective effect
